# According to patent US6410571B1, “Heterocyclic carboxamide-containing thiourea inhibitors of herpes viruses containing a substituted phenylenediamine group” (American Home Products Corporation, priority 1998, dated 2002):
# How the values were obtained:
# [1] = test system: HSV-1; experiment: HSV Antiviral (ELISA) Assay; type: cell-based, herpes simplex virus type 1; details: Vero cells; for IC50: Human alphaherpesvirus 1, read-out: IC50 (ug/ml) HSV
# Method: Vero cells (ATCC #CCL-81) are plated on 96-well tissue culture plates at 3.5×10^4 cells per 100 μl tissue culture DMEM (Dulbecco's modified Eagle media) supplemented with 2% fetal bovine serum (FBS) in each well. After overnight incubation @37° C. (in 5% CO2) and 30 minutes prior to infection with HSV-1 (multiplicity of infection equal to 0.006), cells are either untreated, or treated with test compound (multiple concentrations) or reference standard drug control. After approximately 24 hours post-infection incubation @37° C. (in 5% CO2), cells are fixed for ELISA assay. The primary antibody is murine anti-HSV glycoprotein D monoclonal primary antibody and the secondary antibody is goat anti-mouse IgG linked to β-galactosidase. Thus the extent of viral replication is determined by assessing β-galactosidase activity by quantifying the generation of the 4-methyl umbeliiferone fluorescent cleavage product after addition of the methyl umbelliferyl-β-D-galactoside (Sigma #M1633) substrate on a microfluorimeter (365 nm for excitation and 450 nm for emission). Antiviral activity (IC50) of the test compound is determined by comparing the flourescence obtained in absence of compound to that obtained in the presence of compound.
# [2] = test system: HCMV wild-type; experiment: HCMV yield assay; type: cell-based, human cytomegalovirus; details: human foreskin fibroblasts; for IC50: Human betaherpesvirus 5, Fibroblast, read-out: IC50 (ug/ml) HCMV
# Method: Yield assay. Monolayer cultures of human foreskin fibroblasts are infected with HCMV wild-type, typically at a multiplicity of infection equal to 0.2, in the presence of inhibitor compound (varying concentrations). At three days post-infection, total virus produced in these cultures (i.e. virus yield) is assessed by harvesting and titering the virus in 12-well plates of cultured human foreskin fibroblasts (done in the absence of inhibitor). Plaques are quantified at 2 weeks post-infection. An inhibitor of HCMV is identified by the reduction in titer of virus yield in the presence, compared to the titer in the absence of compound. In this assay, the relative anti-HCMV activity of an inhibitor is typically determined by calculating the IC50 or IC90 value, that is, the amount of compound required to reduce the virus yield by 50% or 90%, respectively. Table I describes IC50 data for compounds tested against HCMV.
# [3] = test system: VZV strain Ellen; experiment: VZV Antiviral (ELISA) Assay; type: cell-based, varicella-zoster virus; details: human foreskin fibroblast cells; for inhibition at 10 µg/mL: Human alphaherpesvirus 3, read-out: % inhibition 10 ug/ml VZV; for inhibition at 10 µg/mL / % inhibition 10 ug/ml VZV: 10 ug/ml; for IC50: Human alphaherpesvirus 3, read-out: IC50 (ug/ml) VZV
# Method: For the generation of stock VZV to be used in the assay, VZV strain Ellen (ATCC #VR-1367) is used to infect human foreskin fibroblast (HFF) cells at low multiplicity (less than 0.1) and incubated overnight at 37° C. in 5% CO2. After the overnight incubation, the mixture of uninfected and VZV-infected HFF infected cells are then harvested and added to each well of 96-well plates (3.5×10^4 cells in 100 μl DMEM supplemented with 2% FBS) which contain test compound or the reference standard drug control (in 100 μl DMEM supplemented with 2% FBS per well). These cells are incubated for three days at 37° C. in 5% CO2, then fixed for ELISA assay. The primary antibody is murine anti-VZV glycoprotein II monoclonal antibody (Applied Biosystems, Inc. #13-145-100) and the secondary antibody is goat anti-mouse IgG linked to β-galactosidase. Thus the extent of viral replication is determined by assessing β-galactosidase activity by quantifying the generation of the 4-methyl umbelliferone fluorescent cleavage product after addition of the methyl umbelliferyl-β-D-galactoside (Sigma #M1633) substrate on a microfluorimeter (365 nm for excitation and 450 nm for emission). Antiviral activity (IC50) of the test compound is determined by comparing the flourescence obtained in absence of compound to that obtained in the presence of compound.
molecule,measurement,setting,value
"COc1cc(OC)c(NC(=S)Nc2ccc(NC(=O)c3ccco3)c(Cl)c2)cc1Cl [Example 307, Furan-2-carboxylic acid {2-chloro-4-[3-(5-chloro-2,4-dimethoxy-phenyl)-thioureido]-phenyl}-amide]",IC50,[1],> 10 µg/mL
same,IC50,[2],5 µg/mL
same,inhibition at 10 µg/mL,[3],30%
same,IC50,[3],> 10 µg/mL
"COc1cc(OC)c(NC(=S)Nc2ccc(NC(=O)c3ccco3)cc2Cl)cc1Cl [Example 356, Furan-2-carboxylic acid {3-chloro-4-[3-(5-chloro-2,4-dimethoxy-phenyl)thioureido]-phenyl}-amide]",IC50,[1],0.5 µg/mL
same,IC50,[2],0.4 µg/mL
same,inhibition at 10 µg/mL,[3],72%
same,IC50,[3],1.9 µg/mL
"COc1cc(OC)c(NC(=S)Nc2ccc(NC(=O)c3ccco3)cc2C)cc1Cl [Example 296, Furan-2-carboxylic acid {4-[3-(5-chloro-2,4-dimethoxy-phenyl)-thioureido]-3-methyl-phenyl}-amide]",IC50,[1],1.2 µg/mL
same,IC50,[2],8 µg/mL
same,inhibition at 10 µg/mL,[3],48%
same,IC50,[3],> 10 µg/mL
"COc1cc(OC)c(NC(=S)Nc2ccc(NC(=O)c3ccco3)c(C(=O)Nc3ccccc3)c2)cc1Cl [Example 302, Furan-2-carboxylic acid {4-[3-(5-chloro-2,4-dimethoxy-phenyl)-thioureido]-2-phenylcarbamoyl-phenyl}-amide]",IC50,[1],10 µg/mL
same,IC50,[2],> 10 µg/mL
same,inhibition at 10 µg/mL,[3],5%
same,IC50,[3],> 10 µg/mL
"COc1cc(OC)c(NC(=S)Nc2ccc(NC(=O)c3ccco3)c(OC)c2)cc1Cl [Example 304, Furan-2-carboxylic acid {4-[3-(5-chloro-2,4-dimethoxy-phenyl)-thioureido]-2-methoxy-phenyl}-amide]",IC50,[1],8 µg/mL
same,IC50,[2],7 µg/mL
same,inhibition at 10 µg/mL,[3],44%
same,IC50,[3],11 µg/mL
"COc1cc(OC)c(NC(=S)Nc2ccc(NC(=O)c3ccco3)c(C(F)(F)F)c2)cc1Cl [Example 308, Furan-2-carboxylic acid {4-[3-(5-chloro-2,4-dimethoxy-phenyl)-thioureido]-2-trifluoromethyl-phenyl}-amide]",IC50,[1],10 µg/mL
same,IC50,[2],10 µg/mL
same,inhibition at 10 µg/mL,[3],100%
same,IC50,[3],4 µg/mL
"COc1cc(OC)c(NC(=S)Nc2ccc(NC(=O)c3ccco3)c(C)c2)cc1Cl [Example 311, Furan-2-carboxylic acid {4-[3-(5-chloro-2,4-dimethoxy-phenyl)-thioureido]-2-methyl-phenyl}-amide]",IC50,[1],12 µg/mL
same,IC50,[2],6 µg/mL
same,inhibition at 10 µg/mL,[3],13%
same,IC50,[3],> 10 µg/mL
"5-[3-(5-Chloro-2,4-dimethoxy-phenyl)-thioureido]-2-[(furan-2-carbonyl)-amino]-benzoic acid [Example 339]",IC50 (ug/ml) HSV,[1],>50 µg/mL
same,IC50 (ug/ml) HCMV,[2],50 µg/mL
same,% inhibition 10 ug/ml VZV,[3],11%
same,IC50 (ug/ml) VZV,[3],>10 µg/mL
"Furan-2-carboxylic acid {4-[3-(5-chloro-2,4-dimethoxy-phenyl)-thioureido]-3-cyano-phenyl}-amide [Example 382]",IC50 (ug/ml) HSV,[1],>10 µg/mL
same,IC50 (ug/ml) HCMV,[2],>10 µg/mL
same,% inhibition 10 ug/ml VZV,[3],46%
same,IC50 (ug/ml) VZV,[3],>10 µg/mL
"COc1cc(OC)c(NC(=S)Nc2cc(OC)c(NC(=O)c3ccco3)cc2OC)cc1Cl [Example 276, Furan-2-carboxylic acid {4-[3-(5-chloro-2,4-dimethoxy-phenyl)-thioureido]-2,5-dimethoxy-phenyl}-amide]",IC50,[1],> 10 µg/mL
same,IC50,[2],> 10 µg/mL
same,inhibition at 10 µg/mL,[3],75%
same,IC50,[3],4 µg/mL
"COc1cc(OC)c(NC(=S)Nc2ccc(NC(=O)c3ccco3)cc2C(F)(F)F)cc1Cl [Example 858, Furan-2-carboxylic acid {4-[3-(5-chloro-2,4-dimethoxy-phenyl)-thioureido]-3-trifluoromethyl-phenyl}-amide]",IC50,[1],2.5 µg/mL
same,IC50,[2],2 µg/mL
same,inhibition at 10 µg/mL,[3],26%
same,IC50,[3],> 10 µg/mL
"COc1cc(OC)c(NC(=S)Nc2ccc(NC(=O)c3ccco3)c(C(=O)c3ccccc3)c2)cc1Cl [Example 294, Furan-2-carboxylic acid {2-benzoyl-4-[3-(5-chloro-2,4-dimethoxy-phenyl)-thioureido]-phenyl}-amide]",IC50,[1],> 50 µg/mL
same,IC50,[2],> 10 µg/mL
same,inhibition at 10 µg/mL,[3],0%
same,IC50,[3],> 10 µg/mL
"COc1cc(OC)c(NC(=S)Nc2cc(O)c(NC(=O)c3ccco3)cc2Cl)cc1Cl [Example 320, Furan-2-carboxylic acid {5-chloro-4-[3-(5-chloro-2,4-dimethoxy-phenyl)-thioureido]-2-hydroxy-phenyl}-amide]",IC50,[1],8 µg/mL
same,IC50,[2],8 µg/mL
same,inhibition at 10 µg/mL,[3],50%
same,IC50,[3],> 10 µg/mL
"COc1cc(OC)c(NC(=S)Nc2ccc(NC(=O)c3ccco3)c(C#N)c2)cc1Cl [Example 306, Furan-2-carboxylic acid {4-[3-(5-chloro-2,4-dimethoxy-phenyl)-thioureido]-2-cyano-phenyl}-amide]",IC50,[1],> 10 µg/mL
same,IC50,[2],2.5 µg/mL
same,inhibition at 10 µg/mL,[3],33%
same,IC50,[3],> 10 µg/mL
"COc1cc(OC)c(NC(=S)Nc2cc(OC)c(NC(=O)c3ccco3)cc2C)cc1Cl [Example 287, Furan-2-carboxylic acid {4-[3-(5-chloro-2,4-dimethoxy-phenyl)-thioureido]-2-methoxy-5-methyl-phenyl}-amide]",IC50,[1],8 µg/mL
same,IC50,[2],> 50 µg/mL
same,inhibition at 10 µg/mL,[3],5%
same,IC50,[3],> 10 µg/mL
"COc1cc(OC)c(NC(=S)Nc2ccc(NC(=O)c3ccco3)c3ccccc23)cc1Cl [Example 324, Furan-2-carboxylic acid {4-[3-(5-chloro-2,4-dimethoxy-phenyl)-thioureido]-naphthalen-1-yl}-amide]",IC50,[1],4 µg/mL
same,IC50,[2],8 µg/mL
same,inhibition at 10 µg/mL,[3],24%
same,IC50,[3],> 10 µg/mL
"COc1cc(OC)c(NC(=S)Nc2cc(C)c(NC(=O)c3ccco3)cc2Cl)cc1Cl [Example 328, Furan-2-carboxylic acid {5-chloro-4[3-(5-chloro-2,4-dimethoxy-phenyl)-thioureido]-2-methyl-phenyl}-amide]",IC50,[1],> 10 µg/mL
same,IC50,[2],> 10 µg/mL
same,inhibition at 10 µg/mL,[3],44%
same,IC50,[3],> 10 µg/mL
"COc1cc(OC)c(NC(=S)Nc2ccc(NC(=O)c3ccco3)cc2OC)cc1Cl [Example 390, Furan-2-carboxylic acid {4-[3-(5-chloro-2,4-dimethoxy-phenyl)-thioureido]-3-methoxy-phenyl}-amide]",IC50,[1],0.5 µg/mL
same,IC50,[2],> 10 µg/mL
same,inhibition at 10 µg/mL,[3],61%
same,IC50,[3],> 10 µg/mL
